Where two headings read alike, the source gives them in different places.
Columns and labels:
Test in all cases: Cerep selectivity panel
Format in all cases: binding
H1 (h) = molecular target: T1, H1 (h) (Homo sapiens, UniProt P35367); details: for inhibition at 10 µM: read-out: % Inhibition at 10µM
T1 construct: purchased Cerep
Procedure: (§1) Supplementary file pone.0181868.s003.docx: S3 Table Selectivity profile of RORγt inverse agonists A, B, C and D. Compounds were evaluated at 1 μM and 10 μM in a panel of assays against 50 receptors, ion channels and transporters (Profile service by Cerep Inc.). (DOCX) Click here for additional data file.
(§2) S3 Table. RORɣt inverse agonists A, B, C and D were evaluated at 1 µM and 10 µM in a panel of assays against 50 receptors, ion channels and transporters (Profile service by Cerep Inc.).

V1 a (h) = molecular target: T2, V1 a (h) (Homo sapiens, UniProt P37288); details: for inhibition at 10 µM: read-out: % Inhibition at 10µM
T2 construct: purchased Cerep
T2 sequence (P37288 whole entry): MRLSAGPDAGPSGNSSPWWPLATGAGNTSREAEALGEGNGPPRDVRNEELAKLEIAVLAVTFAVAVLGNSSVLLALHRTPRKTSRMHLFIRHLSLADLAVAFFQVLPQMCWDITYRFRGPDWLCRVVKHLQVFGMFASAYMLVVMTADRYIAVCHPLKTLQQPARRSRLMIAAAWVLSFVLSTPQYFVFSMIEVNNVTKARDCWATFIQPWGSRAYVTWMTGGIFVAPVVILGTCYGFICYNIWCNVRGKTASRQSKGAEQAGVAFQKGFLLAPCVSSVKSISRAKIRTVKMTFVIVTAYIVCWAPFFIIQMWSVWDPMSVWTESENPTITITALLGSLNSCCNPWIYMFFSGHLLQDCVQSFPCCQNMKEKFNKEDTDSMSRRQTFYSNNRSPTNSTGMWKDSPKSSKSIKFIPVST
Procedure: as §1, §2

5HT5A (h) = molecular target: T3, 5HT5A (h) (Homo sapiens, UniProt P47898); details: for inhibition at 1 µM: read-out: % Inhibition at 1µM; for inhibition at 10 µM: read-out: % Inhibition at 10µM
T3 construct: purchased Cerep
T3 sequence (P47898 whole entry): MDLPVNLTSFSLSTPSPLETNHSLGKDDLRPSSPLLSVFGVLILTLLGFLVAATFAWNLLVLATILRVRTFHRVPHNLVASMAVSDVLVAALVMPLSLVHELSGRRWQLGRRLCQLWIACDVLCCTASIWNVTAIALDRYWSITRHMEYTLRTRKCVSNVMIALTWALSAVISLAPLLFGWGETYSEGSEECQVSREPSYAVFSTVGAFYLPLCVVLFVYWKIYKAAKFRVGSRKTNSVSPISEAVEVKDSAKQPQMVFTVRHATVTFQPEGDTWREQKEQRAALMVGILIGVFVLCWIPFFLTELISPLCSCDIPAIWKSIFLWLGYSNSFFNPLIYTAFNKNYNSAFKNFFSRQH
Procedure: as §1, §2

5HT3 (h) = molecular target: T4, 5HT3 (h) (Homo sapiens, UniProt P46098); details: for inhibition at 1 µM: read-out: % Inhibition at 1µM; for inhibition at 10 µM: read-out: % Inhibition at 10µM
T4 construct: purchased Cerep
T4 sequence (P46098 24-478): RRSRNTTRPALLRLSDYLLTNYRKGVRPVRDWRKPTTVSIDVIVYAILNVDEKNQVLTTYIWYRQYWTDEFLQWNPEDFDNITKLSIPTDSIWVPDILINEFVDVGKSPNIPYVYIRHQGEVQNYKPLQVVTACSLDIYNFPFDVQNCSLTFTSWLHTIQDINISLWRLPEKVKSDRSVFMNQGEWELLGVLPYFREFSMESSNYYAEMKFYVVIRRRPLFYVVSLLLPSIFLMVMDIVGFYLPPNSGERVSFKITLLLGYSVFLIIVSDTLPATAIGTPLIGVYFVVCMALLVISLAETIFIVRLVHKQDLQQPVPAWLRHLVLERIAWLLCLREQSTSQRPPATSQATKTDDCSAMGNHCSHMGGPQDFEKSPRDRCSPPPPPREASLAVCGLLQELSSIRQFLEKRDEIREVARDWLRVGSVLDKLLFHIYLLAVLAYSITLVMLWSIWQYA
Procedure: as §1, §2

OP1 (h) = molecular target: T5, OP1 (h) (Homo sapiens, UniProt P41143); details: for inhibition at 1 µM: read-out: % Inhibition at 1µM; for inhibition at 10 µM: read-out: % Inhibition at 10µM
T5 construct: purchased Cerep
T5 sequence (P41143 whole entry): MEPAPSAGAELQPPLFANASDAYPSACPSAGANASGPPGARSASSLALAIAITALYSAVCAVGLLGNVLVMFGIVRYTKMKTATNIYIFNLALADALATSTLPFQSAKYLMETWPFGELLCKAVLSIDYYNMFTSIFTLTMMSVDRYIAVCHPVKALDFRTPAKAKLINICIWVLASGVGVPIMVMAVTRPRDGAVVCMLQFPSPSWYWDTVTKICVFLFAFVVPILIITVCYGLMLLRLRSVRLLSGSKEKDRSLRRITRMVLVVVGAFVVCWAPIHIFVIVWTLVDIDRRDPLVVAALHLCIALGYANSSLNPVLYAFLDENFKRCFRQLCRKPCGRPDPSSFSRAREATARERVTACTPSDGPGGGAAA
Procedure: as §1, §2

NE-T = molecular target: T6, NE-T (Homo sapiens, UniProt P23975); details: for inhibition at 1 µM: read-out: % Inhibition at 1µM; for inhibition at 10 µM: read-out: % Inhibition at 10µM
T6 construct: purchased Cerep
T6 sequence (P23975 whole entry): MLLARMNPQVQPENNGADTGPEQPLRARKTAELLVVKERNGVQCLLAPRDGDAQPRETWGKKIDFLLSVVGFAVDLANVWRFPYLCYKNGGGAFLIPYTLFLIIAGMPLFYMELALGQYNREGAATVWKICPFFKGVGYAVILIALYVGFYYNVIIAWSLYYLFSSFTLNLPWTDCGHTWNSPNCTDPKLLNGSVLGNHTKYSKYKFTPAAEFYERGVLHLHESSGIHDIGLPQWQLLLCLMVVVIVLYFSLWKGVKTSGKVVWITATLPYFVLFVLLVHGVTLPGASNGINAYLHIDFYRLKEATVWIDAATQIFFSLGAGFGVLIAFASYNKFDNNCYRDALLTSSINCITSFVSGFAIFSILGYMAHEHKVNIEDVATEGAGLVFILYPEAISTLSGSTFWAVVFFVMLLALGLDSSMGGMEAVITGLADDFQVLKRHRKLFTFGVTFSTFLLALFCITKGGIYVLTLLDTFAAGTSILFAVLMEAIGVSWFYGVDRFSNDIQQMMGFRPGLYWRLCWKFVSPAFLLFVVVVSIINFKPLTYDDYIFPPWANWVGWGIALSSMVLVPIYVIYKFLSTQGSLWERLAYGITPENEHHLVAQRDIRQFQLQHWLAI
Procedure: as §1, §2

OP3 (h) = molecular target: T7, OP3 (h) (Homo sapiens, UniProt P35372); details: for inhibition at 1 µM: read-out: % Inhibition at 1µM; for inhibition at 10 µM: read-out: % Inhibition at 10µM
T7 construct: purchased Cerep
T7 sequence (P35372 whole entry): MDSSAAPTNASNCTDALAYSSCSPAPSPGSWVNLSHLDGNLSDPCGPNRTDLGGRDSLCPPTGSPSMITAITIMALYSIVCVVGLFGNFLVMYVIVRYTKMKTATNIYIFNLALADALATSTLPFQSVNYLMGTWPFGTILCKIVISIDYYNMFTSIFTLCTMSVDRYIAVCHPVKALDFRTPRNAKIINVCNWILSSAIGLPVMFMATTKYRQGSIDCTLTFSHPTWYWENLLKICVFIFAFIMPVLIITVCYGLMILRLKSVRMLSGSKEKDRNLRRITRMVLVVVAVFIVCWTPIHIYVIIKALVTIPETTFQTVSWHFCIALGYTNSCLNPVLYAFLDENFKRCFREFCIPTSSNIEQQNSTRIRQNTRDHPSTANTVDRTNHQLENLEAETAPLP
Procedure: as §1, §2

MC4 (h) = molecular target: T8, MC4 (h) (Homo sapiens, UniProt P32245); details: for inhibition at 10 µM: read-out: % Inhibition at 10µM; for inhibition at 1 µM: read-out: % Inhibition at 1µM
T8 construct: purchased Cerep
T8 sequence (P32245 whole entry): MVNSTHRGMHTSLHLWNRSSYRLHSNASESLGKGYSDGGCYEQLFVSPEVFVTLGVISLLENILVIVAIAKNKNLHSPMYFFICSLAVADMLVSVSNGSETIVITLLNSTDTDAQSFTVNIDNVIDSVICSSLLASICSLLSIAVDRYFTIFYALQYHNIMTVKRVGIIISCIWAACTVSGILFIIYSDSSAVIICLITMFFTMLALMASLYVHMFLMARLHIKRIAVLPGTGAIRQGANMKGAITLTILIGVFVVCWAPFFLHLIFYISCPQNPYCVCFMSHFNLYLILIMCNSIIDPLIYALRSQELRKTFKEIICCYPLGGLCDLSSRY
Procedure: as §1, §2

NK2 (h) = molecular target: T9, NK2 (h) (Homo sapiens, UniProt P21452); details: for inhibition at 1 µM: read-out: % Inhibition at 1µM; for inhibition at 10 µM: read-out: % Inhibition at 10µM
T9 construct: purchased Cerep
T9 sequence (P21452 1-398): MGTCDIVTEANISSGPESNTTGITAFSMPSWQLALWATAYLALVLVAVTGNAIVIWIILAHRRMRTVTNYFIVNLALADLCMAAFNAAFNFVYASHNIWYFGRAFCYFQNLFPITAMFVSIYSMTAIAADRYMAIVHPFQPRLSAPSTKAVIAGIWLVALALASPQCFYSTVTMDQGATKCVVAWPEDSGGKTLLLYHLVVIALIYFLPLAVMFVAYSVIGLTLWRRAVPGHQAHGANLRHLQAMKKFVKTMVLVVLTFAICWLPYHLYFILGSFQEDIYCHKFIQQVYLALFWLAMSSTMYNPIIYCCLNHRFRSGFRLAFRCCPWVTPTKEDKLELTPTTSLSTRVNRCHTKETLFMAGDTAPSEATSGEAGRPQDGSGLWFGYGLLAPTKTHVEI
Procedure: as §1, §2

ORL1 (h) = molecular target: T10, ORL1 (h) (Homo sapiens, UniProt P41146); details: for inhibition at 1 µM: read-out: % Inhibition at 1µM; for inhibition at 10 µM: read-out: % Inhibition at 10µM
T10 construct: purchased Cerep
T10 sequence (P41146 whole entry): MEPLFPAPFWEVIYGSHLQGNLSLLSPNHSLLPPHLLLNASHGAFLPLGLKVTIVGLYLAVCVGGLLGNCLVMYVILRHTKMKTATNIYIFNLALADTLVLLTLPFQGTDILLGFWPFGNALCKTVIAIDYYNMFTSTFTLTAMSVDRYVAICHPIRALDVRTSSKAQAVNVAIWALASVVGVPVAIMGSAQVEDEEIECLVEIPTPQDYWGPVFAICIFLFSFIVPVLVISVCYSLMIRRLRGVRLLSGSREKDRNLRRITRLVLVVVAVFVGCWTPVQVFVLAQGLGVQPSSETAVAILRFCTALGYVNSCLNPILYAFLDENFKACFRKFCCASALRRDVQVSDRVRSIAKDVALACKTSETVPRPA
Procedure: as §1, §2

M3 (h) = molecular target: T11, M3 (h) (Homo sapiens, UniProt P20309); details: for inhibition at 1 µM: read-out: % Inhibition at 1µM; for inhibition at 10 µM: read-out: % Inhibition at 10µM
T11 construct: purchased Cerep
T11 sequence (P20309 whole entry): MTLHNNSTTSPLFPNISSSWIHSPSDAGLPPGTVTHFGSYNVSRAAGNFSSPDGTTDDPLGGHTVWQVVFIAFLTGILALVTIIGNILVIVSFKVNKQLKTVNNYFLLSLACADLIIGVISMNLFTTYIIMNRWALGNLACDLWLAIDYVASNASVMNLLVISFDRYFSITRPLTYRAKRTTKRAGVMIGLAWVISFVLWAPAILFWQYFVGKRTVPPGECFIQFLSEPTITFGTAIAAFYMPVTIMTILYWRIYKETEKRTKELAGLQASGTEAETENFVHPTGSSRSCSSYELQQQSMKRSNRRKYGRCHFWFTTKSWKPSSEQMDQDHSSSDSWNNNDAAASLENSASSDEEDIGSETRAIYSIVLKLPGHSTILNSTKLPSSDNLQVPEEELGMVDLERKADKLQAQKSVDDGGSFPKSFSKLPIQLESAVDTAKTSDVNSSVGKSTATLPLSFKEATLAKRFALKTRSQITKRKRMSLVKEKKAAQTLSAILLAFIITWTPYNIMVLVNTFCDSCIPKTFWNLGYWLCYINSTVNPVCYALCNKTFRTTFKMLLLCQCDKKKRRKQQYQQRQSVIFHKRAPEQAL
Procedure: as §1, §2

BK2 (h) = molecular target: T12, BK2 (h) (Homo sapiens, UniProt P30411); details: for inhibition at 1 µM: read-out: % Inhibition at 1µM; for inhibition at 10 µM: read-out: % Inhibition at 10µM
T12 construct: purchased Cerep
T12 sequence (P30411 1-391): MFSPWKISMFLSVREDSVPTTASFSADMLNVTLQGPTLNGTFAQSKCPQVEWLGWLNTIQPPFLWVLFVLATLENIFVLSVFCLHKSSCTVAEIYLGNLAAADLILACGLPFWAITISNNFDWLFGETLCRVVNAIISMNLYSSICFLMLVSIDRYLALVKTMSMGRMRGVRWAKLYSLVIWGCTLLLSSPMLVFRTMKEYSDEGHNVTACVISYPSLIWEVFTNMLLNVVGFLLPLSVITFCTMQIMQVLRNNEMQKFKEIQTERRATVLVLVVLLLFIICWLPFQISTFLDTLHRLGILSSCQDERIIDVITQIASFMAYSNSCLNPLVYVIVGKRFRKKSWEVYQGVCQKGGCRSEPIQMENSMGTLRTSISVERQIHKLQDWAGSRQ
Procedure: as §1, §2

CXCR2 (h) = molecular target: T13, CXCR2 (h) (Homo sapiens, UniProt P25025); details: read-out: % Inhibition at 10µM
T13 construct: purchased Cerep
T13 sequence (P25025 1-360): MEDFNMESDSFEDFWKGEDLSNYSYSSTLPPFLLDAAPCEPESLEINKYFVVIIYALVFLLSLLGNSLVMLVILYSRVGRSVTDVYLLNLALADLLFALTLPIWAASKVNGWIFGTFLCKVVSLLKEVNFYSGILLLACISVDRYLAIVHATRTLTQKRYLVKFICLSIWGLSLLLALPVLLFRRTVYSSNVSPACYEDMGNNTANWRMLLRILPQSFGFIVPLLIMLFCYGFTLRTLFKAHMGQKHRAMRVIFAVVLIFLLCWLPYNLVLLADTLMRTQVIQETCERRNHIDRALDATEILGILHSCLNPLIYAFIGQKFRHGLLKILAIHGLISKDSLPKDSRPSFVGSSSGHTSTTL
Procedure: as §1, §2

DA-T = molecular target: T14, DA-T (Homo sapiens, UniProt Q01959); details: for inhibition at 1 µM: read-out: % Inhibition at 1µM; for inhibition at 10 µM: read-out: % Inhibition at 10µM
T14 construct: purchased Cerep
Procedure: as §1, §2

5-HT6 (h) = molecular target: T15, 5-HT6 (h) (Homo sapiens, UniProt P50406); details: for inhibition at 10 µM: read-out: % Inhibition at 10µM
T15 construct: purchased Cerep
T15 sequence (P50406 whole entry): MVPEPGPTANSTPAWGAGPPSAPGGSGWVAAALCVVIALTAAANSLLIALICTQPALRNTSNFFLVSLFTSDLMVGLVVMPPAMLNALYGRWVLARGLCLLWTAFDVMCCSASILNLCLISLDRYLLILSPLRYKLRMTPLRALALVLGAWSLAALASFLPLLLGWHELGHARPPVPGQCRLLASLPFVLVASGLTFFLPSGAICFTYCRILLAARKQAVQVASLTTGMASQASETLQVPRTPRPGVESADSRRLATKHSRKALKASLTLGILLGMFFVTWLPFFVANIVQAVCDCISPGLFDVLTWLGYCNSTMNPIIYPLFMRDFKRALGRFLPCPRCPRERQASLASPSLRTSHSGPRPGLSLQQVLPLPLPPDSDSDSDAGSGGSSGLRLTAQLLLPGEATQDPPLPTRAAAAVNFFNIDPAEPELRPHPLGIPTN
Procedure: as §1, §2

T1 sequence (P35367 whole entry): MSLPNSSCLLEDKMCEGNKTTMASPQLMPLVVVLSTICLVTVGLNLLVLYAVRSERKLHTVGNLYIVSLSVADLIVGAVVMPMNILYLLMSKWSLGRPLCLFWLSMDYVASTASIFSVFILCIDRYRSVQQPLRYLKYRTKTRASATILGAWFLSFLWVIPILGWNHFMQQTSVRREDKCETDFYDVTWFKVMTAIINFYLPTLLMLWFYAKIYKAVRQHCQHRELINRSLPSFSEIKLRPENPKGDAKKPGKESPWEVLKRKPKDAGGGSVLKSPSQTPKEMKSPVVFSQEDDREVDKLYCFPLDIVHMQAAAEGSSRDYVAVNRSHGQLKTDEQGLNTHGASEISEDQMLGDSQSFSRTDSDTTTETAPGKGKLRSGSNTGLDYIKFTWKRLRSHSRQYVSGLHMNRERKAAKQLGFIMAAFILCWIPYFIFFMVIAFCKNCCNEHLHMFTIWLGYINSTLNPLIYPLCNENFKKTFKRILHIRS

For `COc1nc2ccc([C@](O)(c3ccc(Cl)cc3)c3cncn3C)cc2c(Cl)c1Cc1ccc(-n2cccn2)cc1` [B], the inhibition at 10 µM (H1 (h)) was 2%, the inhibition at 1 µM (V1 a (h); read-out: % Inhibition at 1µM) was 10% and the inhibition at 10 µM (V1 a (h)) was 10%. For the same compound, the inhibition at 1 µM (5HT5A (h)) was 25%, the inhibition at 10 µM (5HT5A (h)) was 31% and the inhibition at 1 µM (5HT3 (h)) was 16%. The inhibition at 10 µM (5HT3 (h)) was 19%, the inhibition at 1 µM (OP1 (h)) was 6% and the inhibition at 10 µM (OP1 (h)) was 2%. For the same compound, the inhibition at 1 µM (NE-T) was 21%, the inhibition at 10 µM (NE-T) was 38% and the inhibition at 1 µM (OP3 (h)) was 3%. For the same compound, the inhibition at 10 µM (OP3 (h)) was 3%, the inhibition at 10 µM (MC4 (h)) was 6% and the inhibition at 1 µM (NK2 (h)) was 9%. The inhibition at 10 µM (NK2 (h)) was 30%, the inhibition at 1 µM (ORL1 (h)) was 6% and the inhibition at 10 µM (ORL1 (h)) was 4%. The inhibition at 1 µM (M3 (h)) was 1%, the inhibition at 10 µM (M3 (h)) was 15% and the inhibition at 1 µM (BK2 (h)) was 9%. The inhibition at 10 µM (BK2 (h)) was 6%.
In the case of `COc1nc2ccc([C@@](O)(c3ccccc3)C3CCN(C(C)=O)CC3)cc2c(Cl)c1Cc1ccc(-n2cccn2)cc1` [C], the inhibition at 10 µM (CXCR2 (h)) is reported as 10%, the inhibition at 1 µM (H1 (h); read-out: % Inhibition at 1µM) is reported as 10% and the inhibition at 1 µM (5HT5A (h)) is reported as 13%. For the same compound, the inhibition at 10 µM (5HT5A (h)) was 23%, the inhibition at 10 µM (5HT3 (h)) was 18% and the inhibition at 1 µM (OP1 (h)) was 9%. For the same compound, the inhibition at 10 µM (OP1 (h)) was 11%, the inhibition at 1 µM (NE-T) was 19% and the inhibition at 10 µM (NE-T) was 38%. It also gave an inhibition at 1 µM (OP3 (h)) of 2%, an inhibition at 10 µM (OP3 (h)) of 15% and an inhibition at 1 µM (MC4 (h)) of 14%. For the same compound, the inhibition at 1 µM (DA-T) was 17%, the inhibition at 10 µM (DA-T) was 25% and the inhibition at 10 µM (NK2 (h)) was 19%. It also gave an inhibition at 1 µM (5-HT6 (h); read-out: % Inhibition at 1µM) of 20%, an inhibition at 10 µM (5-HT6 (h)) of 22% and an inhibition at 1 µM (M3 (h)) of 21%. It also gave an inhibition at 10 µM (M3 (h)) of 19%.
`COc1nc2ccc([C@@](O)(c3ccc(C)nc3C)c3cnnn3C)cc2c(Cl)c1Cc1ccc(C(F)(F)F)cc1` [compound A] was tested, and the inhibition at 10 µM (CXCR2 (h); CXCR2 (h), 10 µM) was 12%, the inhibition at 10 µM (H1 (h); H1 (h), 10 µM) was 8% and the inhibition at 10 µM (V1 a (h); V1 a (h), 10 µM) was 19%. It also gave an inhibition at 1 µM (5HT5A (h); 5HT5A (h), 1 µM) of 7%, an inhibition at 10 µM (5HT5A (h); 5HT5A (h), 10 µM) of 84% and an inhibition at 1 µM (5HT3 (h); 5HT3 (h), 1 µM) of 7%. It also gave an inhibition at 10 µM (5HT3 (h); 5HT3 (h), 10 µM) of 29%, an inhibition at 1 µM (OP1 (h); OP1 (h), 1 µM) of 9% and an inhibition at 10 µM (OP1 (h); OP1 (h), 10 µM) of 27%. The inhibition at 1 µM (NE-T; NE-T, 1 µM) was 44%, the inhibition at 10 µM (NE-T; NE-T, 10 µM) was 86% and the inhibition at 10 µM (OP3 (h); OP3 (h), 10 µM) was 17%. The inhibition at 10 µM (MC4 (h); MC4 (h), 10 µM) was 9%, the inhibition at 1 µM (DA-T; DA-T, 1 µM) was 38% and the inhibition at 10 µM (DA-T; DA-T, 10 µM) was 81%. The inhibition at 1 µM (NK2 (h); NK2 (h), 1 µM) was 7%, the inhibition at 10 µM (NK2 (h); NK2 (h), 10 µM) was 41% and the inhibition at 10 µM (5-HT6 (h); 5-HT6 (h), 10 µM) was 10%. It also gave an inhibition at 1 µM (ORL1 (h); ORL1 (h), 1 µM) of 1%, an inhibition at 10 µM (ORL1 (h); ORL1 (h), 10 µM) of 10% and an inhibition at 10 µM (M3 (h); M3 (h), 10 µM) of 63%. The inhibition at 1 µM (BK2 (h); BK2 (h), 1 µM) was 6%.
`CN(C)c1nc2ccc(C(O)(c3ccncc3)c3cncn3C)cc2c(Cl)c1-c1ccccc1` (stereo not shown) [compound D] was tested, and the inhibition at 10 µM (CXCR2 (h)) was 17%, the inhibition at 10 µM (H1 (h)) was 27% and the inhibition at 10 µM (V1 a (h)) was 12%. For the same compound, the inhibition at 10 µM (5HT5A (h)) was 42%, the inhibition at 1 µM (5HT3 (h)) was 8% and the inhibition at 10 µM (5HT3 (h)) was 17%. It also gave an inhibition at 10 µM (OP1 (h)) of 36%, an inhibition at 1 µM (NE-T) of 5% and an inhibition at 10 µM (NE-T) of 76%. It also gave an inhibition at 1 µM (OP3 (h)) of 3%, an inhibition at 10 µM (OP3 (h)) of 30% and an inhibition at 1 µM (MC4 (h)) of 3%. The inhibition at 10 µM (MC4 (h)) was 25%, the inhibition at 1 µM (DA-T) was 23% and the inhibition at 10 µM (DA-T) was 87%. The inhibition at 1 µM (NK2 (h)) was 9%, the inhibition at 10 µM (NK2 (h)) was 98% and the inhibition at 10 µM (5-HT6 (h)) was 18%. For the same compound, the inhibition at 1 µM (ORL1 (h)) was 5%, the inhibition at 1 µM (M3 (h)) was 33% and the inhibition at 10 µM (M3 (h)) was 70%. It also gave an inhibition at 10 µM (BK2 (h)) of 10%.

Source: PMC5538713, “RORγt and RORα signature genes in human Th17 cells” (PLoS ONE, 2017)
